Tests used:
M4 muscarinic receptor = molecular target: T1, M4 muscarinic receptor (Homo sapiens, UniProt P08173); experiment: Functional mobilization of intracellular calcium (FLIPR) in M4-CHO cells; format: cell-based; conditions: Table 4; for Emax: 100% efficacy is the maximum response obtained with the Carbachol control; for M4 Activity: modulating M4 receptor
T1 construct: expressed in transfected cells; host or cells: CHO (M4-CHO)
T1 sequence (P08173 1-479): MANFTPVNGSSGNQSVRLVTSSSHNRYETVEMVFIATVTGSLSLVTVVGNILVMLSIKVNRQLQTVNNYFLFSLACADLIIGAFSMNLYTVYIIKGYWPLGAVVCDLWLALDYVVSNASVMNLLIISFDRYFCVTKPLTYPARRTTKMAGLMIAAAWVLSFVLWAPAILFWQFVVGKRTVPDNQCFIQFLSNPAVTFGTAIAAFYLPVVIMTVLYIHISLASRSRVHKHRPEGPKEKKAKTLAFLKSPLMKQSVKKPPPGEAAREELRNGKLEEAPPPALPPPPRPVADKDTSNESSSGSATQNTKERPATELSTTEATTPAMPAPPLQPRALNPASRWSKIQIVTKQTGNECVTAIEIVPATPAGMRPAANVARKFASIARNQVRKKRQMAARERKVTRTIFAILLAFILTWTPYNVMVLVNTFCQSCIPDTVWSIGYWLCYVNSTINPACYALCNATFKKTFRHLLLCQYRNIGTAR
In short: (§1)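 CHO cells stably expressing human M1 or M4 receptor were loaded with Fluo-3 AM (or Calcium 3 dye) in Hepes-buffered saline, pH 7.4, with 1 mM probenecid, 0.5% final DMSO. Agonist mode: compound added directly; antagonist mode: 15 min preincubation before carbachol at EC80. FLIPR fluorescence recorded 60 sec.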

M1 muscarinic receptor = molecular target: T2, M1 muscarinic receptor (Homo sapiens, UniProt P11229); experiment: Functional mobilization of intracellular calcium (FLIPR) in M1-CHO cells; format: cell-based; conditions: Table 4; for Emax: 100% efficacy is the maximum response obtained with the Carbachol control; for M1 Activity: modulating M1 receptor
T2 construct: expressed in transfected cells; host or cells: CHO (M1-CHO)
T2 sequence (P11229 1-460): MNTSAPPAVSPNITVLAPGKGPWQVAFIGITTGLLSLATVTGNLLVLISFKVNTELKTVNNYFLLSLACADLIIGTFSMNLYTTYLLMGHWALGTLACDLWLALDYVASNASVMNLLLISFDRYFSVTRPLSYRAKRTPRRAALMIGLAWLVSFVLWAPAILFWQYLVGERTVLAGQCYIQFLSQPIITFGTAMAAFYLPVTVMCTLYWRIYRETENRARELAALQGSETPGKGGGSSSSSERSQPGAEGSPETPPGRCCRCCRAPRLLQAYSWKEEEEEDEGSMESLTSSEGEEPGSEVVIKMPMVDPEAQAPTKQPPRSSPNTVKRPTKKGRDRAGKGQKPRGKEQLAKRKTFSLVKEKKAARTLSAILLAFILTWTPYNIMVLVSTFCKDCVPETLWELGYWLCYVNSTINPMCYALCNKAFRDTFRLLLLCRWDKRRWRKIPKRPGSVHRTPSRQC
In short: as §1

| Compound | Emax (M4 muscarinic receptor) [%] | M4 Activity (M4 muscarinic receptor) | Emax (M1 muscarinic receptor) [%] | M1 Activity (M1 muscarinic receptor) |
| --- | --- | --- | --- | --- |
| CC(=O)N1CC2(CCN(C3CCN(C(=O)OCC(C)(C)C)CC3)CC2)c2ccccc21 [compound 496] | < 25 | x (activity was measured to be greater than 5.0 μM) | < 25 | x (activity was measured to be greater than 5.0 μM) |
| CN(C)C(=O)N1CC2(CCN(C3CCN(c4nccnc4C#N)CC3)CC2)c2cc(F)ccc21 [compound 497] | 25 to 100 | xx (activity was measured to be between 2.0 μM and 5.0 μM) | 25 to 100 | xx (activity was measured to be between 2.0 μM and 5.0 μM) |
| Cc1ccc2c(c1)C(=O)CC21CCN(CC2C[C@H]3C=C[C@H]2C3)CC1 (stereo partly shown) [compound 498] | 25 to 100 | xxx (activity was measured to be less than 2.0 μM) | 25 to 100 | xxx (activity was measured to be less than 2.0 μM) |
| CCOC(=O)N1CCC(N2CCC3(CC2)CN(C(C)=O)c2c(-c4cccc(F)c4)cccc23)CC1 [compound 499] | < 25 | x (activity was measured to be greater than 5.0 μM) | 25 to 100 | x (activity was measured to be greater than 5.0 μM) |
| COc1ccc(CC(=O)N2CCC(N3CCC4(CC3)CN(C(=O)N(C)C)c3ccc(F)cc34)CC2)cc1 [compound 500] | < 25 | x (activity was measured to be greater than 5.0 μM) | < 25 | x (activity was measured to be greater than 5.0 μM) |
| CCOC(=O)N1CC[C@@H](CN2CCC3(CC2)CN(C(C)=O)c2cccc(C)c23)C1 [compound 502] | 25 to 100 | xx (activity was measured to be between 2.0 μM and 5.0 μM) | 25 to 100 | xxx (activity was measured to be less than 2.0 μM) |
| CCOC(=O)N1C2CCC1CC(N1CCC3(CC[C@H](NC(=O)N(C)C)c4ccccc43)CC1)C2 (stereo partly shown) [compound 503] | 25 to 100 | xxx (activity was measured to be less than 2.0 μM) | 25 to 100 | xxx (activity was measured to be less than 2.0 μM) |
| CC(=O)N[C@H]1CCC2(CCN(C3CC(C)(C)CC(C)(C)C3)CC2)c2ccccc21 [compound 504] | < 25 | x (activity was measured to be greater than 5.0 μM) | < 25 | x (activity was measured to be greater than 5.0 μM) |
| CC(=O)N1CC2(CCN(C3CCN(c4cnccn4)CC3)CC2)c2ccccc21 [compound 505] | 25 to 100 | xxx (activity was measured to be less than 2.0 μM) | 25 to 100 | xxx (activity was measured to be less than 2.0 μM) |
| CC(=O)N[C@@H]1CCC2(CCN([C@@H]3C[C@H]4CC[C@@H]3C4)CC2)c2ccccc21 [compound 506] | 25 to 100 | xx (activity was measured to be between 2.0 μM and 5.0 μM) | < 25 | x (activity was measured to be greater than 5.0 μM) |
| CCCOC(=O)N1C2CCC1CC(N1CCC3(CC1)CN(C(C)=O)c1ccccc13)C2 (stereo not shown) [compound 507] | 25 to 100 | xxx (activity was measured to be less than 2.0 μM) | 25 to 100 | xxx (activity was measured to be less than 2.0 μM) |
| C/C=C/C(=O)N1CC2(CCN(C3CCN(C(=O)OCC)CC3)CC2)c2cc(F)ccc21 [compound 508] | 25 to 100 | xxx (activity was measured to be less than 2.0 μM) | 25 to 100 | xxx (activity was measured to be less than 2.0 μM) |
| CCOC(=O)N1CCC(N2CCC3(CC2)CN(C(C)=O)c2c(C)cccc23)CC1 [compound 509] | 25 to 100 | x (activity was measured to be greater than 5.0 μM) | 25 to 100 | xx (activity was measured to be between 2.0 μM and 5.0 μM) |
| CCCOC(=O)N1CC[C@H](CN2CCC3(CC2)CN(C(=O)N(C)C)c2ccc(F)cc23)C1 [compound 510] | 25 to 100 | xxx (activity was measured to be less than 2.0 μM) | 25 to 100 | xxx (activity was measured to be less than 2.0 μM) |
| COc1cc2c(cc1OC)C1(CCN(CC3CCCCC3)CC1)C[C@@H]2NC(C)=O [compound 511] | < 25 | x (activity was measured to be greater than 5.0 μM) | < 25 | x (activity was measured to be greater than 5.0 μM) |
| COC1CCCCC1N1CCC2(CC1)CN(C(C)=O)c1ccc(F)cc12 (stereo not shown) [compound 512] | < 25 | x (activity was measured to be greater than 5.0 μM) | < 25 | x (activity was measured to be greater than 5.0 μM) |
| CCOC(=O)N1CCC(N2CCC3(CC2)CN(C2CCC4(CC2)OCCO4)c2ccccc23)CC1 [compound 513] | 25 to 100 | xxx (activity was measured to be less than 2.0 μM) | 25 to 100 | xxx (activity was measured to be less than 2.0 μM) |
| CC(=O)N[C@H]1CCC2(CCN(CC3CC3)CC2)c2ccccc21 [compound 514] | 25 to 100 | x (activity was measured to be greater than 5.0 μM) | 25 to 100 | xx (activity was measured to be between 2.0 μM and 5.0 μM) |
| CC#CC(C)OC(=O)N1C2CCC1CC(N1CCC3(CC1)CN(C(C)=O)c1ccccc13)C2 (stereo not shown) [compound 515] | 25 to 100 | xxx (activity was measured to be less than 2.0 μM) | 25 to 100 | xxx (activity was measured to be less than 2.0 μM) |
| C#CCOC(=O)N1C2CCC1CC(N1CCC3(CC1)CN(C(C)=O)c1ccccc13)C2 (stereo not shown) [compound 516] | 25 to 100 | xxx (activity was measured to be less than 2.0 μM) | 25 to 100 | xxx (activity was measured to be less than 2.0 μM) |
| CCOC(=O)N1CCC(N2CCC3(CC2)CN(c2ccncc2)c2ccc(F)cc23)CC1 [compound 517] | 25 to 100 | xxx (activity was measured to be less than 2.0 μM) | 25 to 100 | xxx (activity was measured to be less than 2.0 μM) |
| CCCOC(=O)N1CC[C@H](CN2CCC3(CC2)CN(C(C)=O)c2ccccc23)C1 [compound 518] | < 25 | x (activity was measured to be greater than 5.0 μM) | < 25 | x (activity was measured to be greater than 5.0 μM) |
| O=C(N[C@H]1CC2(CCN(C[C@@H]3C[C@H]4C=C[C@H]3C4)CC2)c2ccccc21)c1ccoc1 [compound 519] | < 25 | x (activity was measured to be greater than 5.0 μM) | 25 to 100 | xxx (activity was measured to be less than 2.0 μM) |
| CN(C)C(=O)N1CC2(CCN(C3CCN(C(=O)[C@H]4CCCO4)CC3)CC2)c2cc(F)ccc21 [compound 520] | < 25 | x (activity was measured to be greater than 5.0 μM) | 25 to 100 | x (activity was measured to be greater than 5.0 μM) |
| COc1cc2c(cc1OC)C1(CCN(C3CCCCC3)CC1)C[C@@H]2NC(C)=O [compound 521] | < 25 | x (activity was measured to be greater than 5.0 μM) | < 25 | x (activity was measured to be greater than 5.0 μM) |
| CCOC(=O)N1CCC(N2CCC3(CC2)CN(C(=O)C(=O)CC)c2ccc(F)cc23)CC1 [compound 522] | 25 to 100 | xxx (activity was measured to be less than 2.0 μM) | > 100 | xxx (activity was measured to be less than 2.0 μM) |
| O=C(N[C@H]1CC2(CCN(C3C[C@H]4CC[C@@H]3C4)CC2)c2ccccc21)N1CCCCC1 (stereo partly shown) [compound 525] | 25 to 100 | xxx (activity was measured to be less than 2.0 μM) | < 25 | x (activity was measured to be greater than 5.0 μM) |
| CC#CCOC(=O)N1CCC(N2CCC3(CC2)CN(C(C)=O)c2cccc(C)c23)CC1 [compound 526] | < 25 | x (activity was measured to be greater than 5.0 μM) | 25 to 100 | xxx (activity was measured to be less than 2.0 μM) |
